Results as given in patent US20190092756A1, “CRYSTALLINE FORM A OF 2-[(2R)-2-METHYL-2-PYRROLIDYL]-1H-BENZIMIDAZOLE-7-CARBOXAMIDE DIHYDROCHLORIDE AND PREPARATION METHOD THEREOF” (Crystal Pharmatech Co., Ltd., priority 2016, published 2019).
Converted amounts (≈) assume the structure as drawn. Where two headings read alike, the source gives them in different places.

Tests used:
[1] = Particle size distribution (PSD) study, laser particle size analyzer; assay type: physicochemical; conditions: wet method, dispersion medium Isopar G
Excerpt: The result of particle size distribution (PSD) in the present disclosure was acquired by laser particle size analyzer with S3500 model from Microtrac company. The Microtrac S3500 is equipped with a SDC (Sample Delivery Controller) sampling system. This experiment uses a wet method and the dispersion medium is Isopar G. The method and parameters of the laser particle size analyzer are as follows:
The particle size distributions (PSD) of crystalline form A and crystalline form 1 and form 2 in CN101821269B were studied.

[2] = cited from earlier work; for Solubility (in words): from CN101821270A and CN101821269B
[3] = Mechanical stability study (grinding, XRPD before and after); assay type: physicochemical; conditions: ground for 5 minutes
Experimental: Crystalline form A of present disclosure was ground, and analyzed by XRPD before and after being ground for 5 minutes.

[4] = Physical stability study (storage, XRPD before and after); assay type: physicochemical; conditions: 1 month
Experimental: Crystalline form A was stored at 25° C./60% RH and 40° C./75% RH for one month.

[5] = Solubility study in SGF, FeSSIF, FaSSIF and water; assay type: physicochemical
Experimental: Crystalline form A samples were dissolved into 1 mL of simulated gastric fluid (SGF), fed state simulated intestinal fluid (FeSSIF, pH 5.0), fasted state simulated intestinal fluid (FaSSIF, pH 6.5) and water to test the corresponding solubility.

| D10 [1] [μm] | D50 [1] [μm] | D90 [1] [μm] | MV (average based on volume) [1] [μm] | XRPD pattern change before and after grinding [3] | Crystalline form change ([4]; 25° C./60% RH) | Crystalline form change ([4]; 40° C./75% RH) | Observation (dissolution) ([5]; 11.2 mg in 1 mL water) | Observation (dissolution) ([5]; 11.3 mg in 1 mL FeSSIF, pH 5.0) | Observation (dissolution) ([5]; 11.5 mg in 1 mL FaSSIF, pH 6.5) | Observation (dissolution) ([5]; 12.4 mg in 1 mL SGF) | Weight of sample dissolved ([5]; in 1 mL FaSSIF, pH 6.5) [mg] | Weight of sample dissolved ([5]; in 1 mL FeSSIF, pH 5.0) [mg] | Weight of sample dissolved ([5]; in 1 mL SGF) [mg] | Weight of sample dissolved ([5]; in 1 mL water) [mg] | Solubility relative to crystalline forms disclosed in the prior art ([5]; in SGF, FaSSIF, FeSSIF and water) | solubility ([5]; thermodynamic from solid, in SGF, FaSSIF, FeSSIF and water) [µg/mL] | Structure (SMILES) | Solubility (in words) ([2]; listed as Crystalline form 1) | solubility ([2]; after 24 hours in SGF, from CN105130961A) [µg/mL] | Solubility (in words) ([2]; listed as crystalline form 2) |
| --- | --- | --- | --- | --- | --- | --- | --- | --- | --- | --- | --- | --- | --- | --- | --- | --- | --- | --- | --- | --- |
| 11.54 | 18.89 | 31.97 | 20.89 | – | – | – | – | – | – | – | – | – | – | – | – | – | C[C@]1(c2nc3cccc(C(N)=O)c3[nH]2)CCCN1 [Form 1, 2-[(2R)-2-methyl-2-pyrrolidinyl]-1H-benzimidazole-7-carboxamide] | better solubility | – | – |
| 41.6 | 278.6 | 1118 | 407.2 | no significant change | No change | No change | Completely | Completely | Completely | Completely | 11.5 | 11.3 | 12.4 | 11.2 | at least 2 times | > 10000 | C[C@]1(c2nc3cccc(C(N)=O)c3[nH]2)CCCN1 [Form A, 2-[(2R)-2-methyl-2-pyrrolidinyl]-1H-benzimidazole-7-carboxamide] | – | – | – |
| – | – | – | – | – | – | – | – | – | – | – | – | – | – | – | – | – | C[C@]1(c2nc3c(C(N)=O)cccc3[nH]2)CCCN1 [crystalline form B, 2-[(2R)-2-methyl-2-pyrrolidinyl]-1H-benzimidazole-7-carboxamide] | – | 6000 (≈ 24.6 mM) | – |
| 8.99 | 59.08 | 231.9 | 94.50 | – | – | – | – | – | – | – | – | – | – | – | – | – | C[C@]1(c2nc3cccc(C(N)=O)c3[nH]2)CCCN1 [Form 2, 2-[(2R)-2-methyl-2-pyrrolidinyl]-1H-benzimidazole-7-carboxamide] | – | – | poor solubility |
